Data published in patent publication US20130109682A1, “CYCLIC ETHER COMPOUNDS USEFUL AS KINASE INHIBITORS” (NOVARTIS AG, priority 2010, published 2013).
pEC50, pIC50: −log10 of the molar value.

Columns and labels:
GSK3β = GSK3β (Homo sapiens, UniProt P49841); assay: GSK3β ATP depletion assay; format: biochemical; details: read-out: GSK3b IC50
Method in brief: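 Kinase activity is read as ATP consumption: luciferase luminescence reports the ATP remaining once roughly half of the 2 μM ATP is used. Reaction mix: 5 nM GSK3β, 10 μM b-CREB peptide, 50 mM Tris pH 7.5, 15 mM MgCl2, 1 mM DTT, 0.1% BSA, 2.5% DMSO. Enzyme and peptide are preincubated 15 min before ATP is added.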

PIM2 = PIM2 (Homo sapiens, UniProt Q9P1W9); assay: KinaseGlo Pim2 ATP depletion assay; format: biochemical
Chain of PIM2 (Q9P1W9 whole entry): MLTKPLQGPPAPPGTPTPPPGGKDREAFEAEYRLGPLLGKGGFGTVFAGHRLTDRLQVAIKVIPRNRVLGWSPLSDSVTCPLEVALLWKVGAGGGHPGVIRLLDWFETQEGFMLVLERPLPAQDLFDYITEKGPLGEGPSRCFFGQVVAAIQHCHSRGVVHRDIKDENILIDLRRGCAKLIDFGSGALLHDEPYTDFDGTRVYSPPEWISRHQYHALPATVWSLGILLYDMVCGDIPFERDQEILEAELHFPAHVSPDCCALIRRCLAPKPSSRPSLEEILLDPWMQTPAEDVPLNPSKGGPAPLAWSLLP
Method in brief: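 Compound sat 15 min with enzyme and BAD peptide before ATP was added; final levels 5 nM PIM2, 10 μM peptide, 4 μM ATP, 2.5% DMSO, pH 7.5 HEPES buffer with MgCl2, DTT, BSA. Stopped near 50% ATP consumption; remaining ATP measured by luciferase luminescence.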

[1] = test system: KMS11 (human myeloma cell line); assay: Cell proliferation assay (CellTiter-Glo), KMS11; format: cell-based; details: Homo sapiens, KMS-11; KMS11-Luc cells
Protocol: KMS11 (human myeloma cell line), were cultured in IMDM supplemented with 10% FBS, sodium pyruvate and antibiotics. Cells were plated in the same medium at a density of 2000 cells per well into 96 well tissue culture plates, with outside wells vacant, on the day of assay. MMl.s (human myeloma cell line), were cultured in RPMI1640 supplemented with 10% FBS, sodium pyruvate and antibiotics. Cells were plated in the same medium at a density of 5000 cells per well into 96 well tissue culture plates, with outside wells vacant, on the day of assay.
Test compounds supplied in DMSO were diluted into DMSO at 500 times the desired final concentrations before dilution into culture media to 2 times final concentrations. Equal volumes of 2× compounds were added to the cells in 96 well plates and incubated at 37° C. for 3 days.
After 3 days plates were equilibrated to room temperature and equal volume of CellTiter-Glow Reagent (Promega) was added to the culture wells. The plates were agitated briefly and luminescent signal was measured with luminometer.
Using the procedures of Cell Proliferation Assay, the EC50 concentration of indicated compounds of the examples in were determined in KMS11 cells as shown in Table 4.

PIM3 = PIM3 (Homo sapiens, UniProt Q86V86); assay: KinaseGlo Pim3 ATP depletion assay; format: biochemical
Method in brief: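 Residual ATP was detected by luciferase luminescence once about half had been consumed. The reaction contained 5 nM enzyme, 100 μM BAD peptide (RSRHSSYPAGT) and 40 μM ATP in 50 mM HEPES pH 7.5, 5 mM MgCl2, 1 mM DTT and 0.05% BSA with 2.5% DMSO. Compound and enzyme/peptide were premixed 15 min before ATP.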

PIM1 = PIM1 (Homo sapiens, UniProt P11309); assay: KinaseGlo Pim1 ATP depletion assay; format: biochemical
Chain of PIM1 (P11309 whole entry): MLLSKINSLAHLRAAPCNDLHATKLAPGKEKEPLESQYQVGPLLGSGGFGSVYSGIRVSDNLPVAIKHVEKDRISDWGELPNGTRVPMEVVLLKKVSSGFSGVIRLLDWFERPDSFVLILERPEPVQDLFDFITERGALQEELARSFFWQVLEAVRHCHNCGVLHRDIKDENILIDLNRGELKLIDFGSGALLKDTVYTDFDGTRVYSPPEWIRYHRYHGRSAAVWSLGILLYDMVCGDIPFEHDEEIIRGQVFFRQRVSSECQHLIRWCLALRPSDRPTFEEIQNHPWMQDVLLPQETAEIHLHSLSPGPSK
Method in brief: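 IC50 is derived from residual ATP measured by KinaseGlo Plus luminescence once about half the ATP was consumed. Final conditions were 20 μM ATP, 40 μM BAD peptide and 2.5 nM kinase in HEPES pH 7.5 buffer with MgCl2, DTT and BSA, plus 2.5% DMSO. Compound and enzyme were premixed 15 min before ATP addition.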

Chain of GSK3β (P49841 whole entry, species assumed): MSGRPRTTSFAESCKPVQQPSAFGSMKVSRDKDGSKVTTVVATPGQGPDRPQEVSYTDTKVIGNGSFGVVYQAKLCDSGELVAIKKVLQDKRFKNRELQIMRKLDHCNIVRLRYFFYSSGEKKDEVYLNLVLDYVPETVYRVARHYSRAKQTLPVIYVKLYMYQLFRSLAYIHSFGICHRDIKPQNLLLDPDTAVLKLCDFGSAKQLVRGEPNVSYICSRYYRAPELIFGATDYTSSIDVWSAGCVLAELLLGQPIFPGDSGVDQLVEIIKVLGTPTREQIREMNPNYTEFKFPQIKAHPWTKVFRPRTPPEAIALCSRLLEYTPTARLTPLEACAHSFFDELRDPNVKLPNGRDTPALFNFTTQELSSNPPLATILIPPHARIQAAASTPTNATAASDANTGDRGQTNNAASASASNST

| Compound | pIC50 (GSK3β) | pIC50 (PIM2) | pEC50 [1] | pIC50 (PIM3) | pIC50 (PIM1) |
| --- | --- | --- | --- | --- | --- |
| CC[C@]1(O)[C@H](O)C[C@H](c2ccncc2NC(=O)c2nc(-c3nccs3)ccc2N)O[C@@H]1C [Example 3, 3-amino-N-(4-((2R,4R,5S,6R)-5-ethyl-4,5-dihydroxy-6-methyltetrahydro-2H-pyran-2-yl)pyridin-3-yl)-6-(thiazol-2-yl)picolinamide] | 5.93 | 7.18 | < 5.00 | 7.92 | 8.06 |
| C=C1[C@@H](O)C[C@@H](c2ccncc2NC(=O)c2nc(-c3c(F)cccc3F)ncc2N)OC12CC2 [Example 6, 5-amino-2-(2,6-difluorophenyl)-N-(4-((5S,7S)-7-hydroxy-8-methylene-4-oxaspiro[2.5]octan-5-yl)pyridin-3-yl)pyrimidine-4-carboxamide] | 6.14 | 6.55 | < 5.00 | 7.27 | 7.15 |
| C=C1[C@@H](O)C[C@@H](c2ccncc2NC(=O)c2ccc(F)c(-c3c(F)cccc3F)n2)OC12CC2 [Example 7, 6-(2,6-difluorophenyl)-5-fluoro-N-(4-((5S,7S)-7-hydroxy-8-methylene-4-oxaspiro[2.5]octan-5-yl)pyridin-3-yl)picolinamide] | 6.06 | 6.82 | < 5.00 | 7.77 | 8.10 |
| C=C1[C@H](O)C[C@H](c2ccncc2NC(=O)c2nc(-c3c(F)cccc3F)ncc2N)OC12CC2 [Example 8, 5-amino-2-(2,6-difluorophenyl)-N-(4-((5R,7R)-7-hydroxy-8-methylene-4-oxaspiro[2.5]octan-5-yl)pyridin-3-yl)pyrimidine-4-carboxamide] | 5.88 | 6.49 | < 5.00 | 6.83 | 7.29 |
| C[C@@H]1OC(c2ccncc2NC(=O)c2nc(-c3c(F)cccc3F)ncc2N)=C[C@H](O)[C@@]1(C)O [Example 10, 5-amino-2-(2,6-difluorophenyl)-N-(4-((2S,3R,4S)-3,4-dihydroxy-2,3-dimethyl-3,4-dihydro-2H-pyran-6-yl)pyridin-3-yl)pyrimidine-4-carboxamide] | 5.83 | 7.40 | 5.06 | 7.69 | 7.73 |
| C[C@H]1OC(c2ccncc2NC(=O)c2nc(-c3c(F)cccc3F)ncc2N)=C[C@@H](O)[C@]1(C)O [Example 11, 5-amino-2-(2,6-difluorophenyl)-N-(4-((2R,3S,4R)-3,4-dihydroxy-2,3-dimethyl-3,4-dihydro-2H-pyran-6-yl)pyridin-3-yl)pyrimidine-4-carboxamide] | 6.14 | 8.85 | 6.14 | 8.74 | 9.15 |

Results, then the compound that gave them:

| pIC50 (GSK3β) | pIC50 (PIM2) | pEC50 [1] | pIC50 (PIM3) | pIC50 (PIM1) | Compound |
| --- | --- | --- | --- | --- | --- |
| 6.57 | 8.40 | 5.14 | 8.51 | 8.96 | N#C[C@H]1OC(c2ccncc2NC(=O)c2nc(-c3c(F)cccc3F)c(F)cc2N)=C[C@@H](O)[C@@H]1O [Example 4, 3-amino-N-(4-((2R,3S,4R)-2-cyano-3,4-dihydroxy-3,4-dihydro-2H-pyran-6-yl)pyridin-3-yl)-6-(2,6-difluorophenyl)-5-fluoropicolinamide] |
| 6.34 | 6.81 | < 5.00 | 7.60 | 8.31 | C=C1[C@H](O)C[C@H](c2ccncc2NC(=O)c2ccc(F)c(-c3c(F)cccc3F)n2)OC12CC2 [Example 9, 6-(2,6-difluorophenyl)-5-fluoro-N-(4-((5R,7R)-7-hydroxy-8-methylene-4-oxaspiro[2.5]octan-5-yl)pyridin-3-yl)picolinamide] |
| 6.66 | 8.30 | 5.12 | 8.52 | 9.00 | N#C[C@H]1O[C@@H](c2ccncc2NC(=O)c2nc(-c3c(F)cccc3F)c(F)cc2N)C[C@@H](O)[C@@H]1O [Example 12, 3-amino-N-(4-((2R,4R,5S,6R)-6-cyano-4,5-dihydroxytetrahydro-2H-pyran-2-yl)pyridin-3-yl)-6-(2,6-difluorophenyl)-5-fluoropicolinamide] |
